Experiment [1] deals with AMPK pathway (pACC, phosphorylated Acetyl-CoA Carboxylase) in NHEK cells. The experiment can be described thus: Evaluation on AMPK pathway in NHEK cells by pACC immunolabeling. To be noted: for % control (labeling % of the pACC compared to the control brought back to 100%) / global increase of the pACC labelling: NHEK cells, Compound 4 at 10 μM; for % control (labeling % of the pACC compared to the control brought back to 100%): 48 hours incubation, n=3, AICAR at 500 μM (0.5% DMSO); for global increase of the pACC labelling: AICAR reference at 500 μM. In kind it is cell-based, Human. How it is done:
Evaluation of the effect of compound 4 on the AMPK pathway in NHEK cells (Normal Human Epidermal Keratinocytes) by analysis of the pACC (Acetyl-CoA Carboxylase) phosphorylated form expression. This effect is studied by fluorescent immunolabeling and image analysis.
Keratinocytes are seeded in 96-well microplates and grown for 24 hours in a culture medium. The medium is then replaced by the test medium and cells are grown for 24 supplementary hours. Finally, the medium is replaced by the test medium comprising or not (control) the tested compounds, the reference (AICAR) or the control solvent (0.1% or 0.5% DMSO) then the cells are incubated for 48 hours. All the test conditions were carried out with n=3.
After incubation, the immunolabeling is done. The results are expressed in labeling % of the pACC compared to the control brought back to 100%.

Experiment [2] concerns keratinocytes of the HaCaT line. The experiment can be described thus: Production of reactive oxygen species (ROS) induced by UVA in HaCaT keratinocytes (DHR123 or DCFH-DA probe). In kind it is cell-based. As to conditions: for EC50: Homo sapiens, light or radiation study, 24 h incubation, UVA exposure, concentration allowing 50% photoprotection (500 μM vitamin C = 100%); for ROS production decrease: UVA-induced ROS. How it is done: The decrease of the production of reactive oxygen species in keratinocytes of the HaCaT line is evaluated by detection, using the Dihydrorhodamine 123 (DHR123) probe or using Dichloro-dihydro-fluorescein diacetate (DCFH-DA) probe, the ROS production is induced by exposition to UVA after 24 h of incubation in the presence of the compounds to be tested. The DHR123 and DCFH-DA probes are indicators of the presence of reactive oxygen species (ROS). HaCaT keratinocytes in monolayer culture are placed in the presence of a solution of a compound to be tested at various concentrations (0.4-200 μM) in the medium. After 24 h of incubation, the cells are exposed to UVA, then incubated with the DHR123 probe or DCFH-DA probe for 1 h. The fluorescence of the probe is then measured. A viability test is carried out in parallel in order to discard the cytotoxic compounds. In parallel, the keratinocytes are incubated with vitamin C acting as a positive control and a standard: an incubation with 500 μM of vitamin C corresponds to 100% photoprotection. The dose-effect curves of the fluorescence detected as a function of the concentration of compounds (to be tested) present in the medium make it possible to calculate the effective dose EC50 which corresponds to the concentration of compound (to be tested) that allows 50% photoprotection of the keratinocytes.

Where [3] appears, read: DCFH-DA probe, read-out: EC50- DCFH-DA.
[4] abbreviates: DHR123 probe, read-out: EC50 -DHR123.

For orientation: EC50 means the concentration needed to bring the measured effect to its halfway point.

Read-outs that look alike come from different tables or passages of the source.

Regarding `NC(=O)c1ncn([C@@H]2O[C@H](CO)[C@@H](O)[C@H]2O)c1N` [AICAR, reference compound], in experiment [1], the “% control (labeling % of the pACC compared to the control brought back to 100%)” value stood at 117% and the “global increase of the pACC labelling” value is 17%.
For the compound `COc1ccc(/C=C/c2ccc(O)c(OC)c2)cc1` [Compound 1], the EC50 in experiment [2] (setting [3]) is 20 µM; in experiment [2] (setting [4]) it was 36 µM. Moreover, in experiment [2], the ROS production decrease entry is given as “Yes”.
Take `COc1cc(/C=C/c2ccc(OC)c(OC)c2)ccc1O` [Compound 4]: the EC50 in experiment [2] (setting [4]) was 100 µM. In addition, the ROS production decrease entry in experiment [2] is given as “Yes”. Moreover, the “activation of the AMPK route in normal human keratinocytes” value in experiment [1] (10 μM) is “capable to active the AMPK route”. Further, in experiment [1], the “% control (labeling % of the pACC compared to the control brought back to 100%)” value was 119% and the “global increase of the pACC labelling” value is listed as 19%.
`COc1cc(/C=C/c2ccc(OC(C)=O)c(OC)c2)ccc1O` [Compound 5]: in experiment [2] (setting [3]), the EC50 was 29 µM. For the same compound, the ROS production decrease result in experiment [2] is recorded as “Yes”.

The values above are taken from patent US11318079B2, “Polyhydroxylated (1-phenyl-2-phenyl) ethylene derivatives as an anti-ageing and photoprotective agent” (L'OREAL, priority 2015, dated 2022).
